Assay results: patent US10508168B2, “Thermoplastic polymer, method of preparing thermoplastic polymer, and thermoplastic polymer composition including thermoplastic polymer” (LG CHEM, LTD., priority 2015, dated 2019)

Experiment: TGA test of thermal stability of emulsifier fatty acids
Type: physicochemical
Settings: for Temperature at which loss of 5% by weight (w/w) occurs / Temperature at which loss of 50% by weight (w/w) occurs: Table 2; for Thermal stability (TGA comparison): result in words
From the text: The present inventors first performed a process of selecting emulsifier candidates to substitute for a conventionally used fatty acid-based emulsifier so as to change the emulsifier among the aforementioned materials, and then selected an emulsifier having relatively high thermal stability through a boiling point test and a TGA test in accordance with the purpose of the present invention of reducing the amount of gas generated in high-temperature extrusion and injection-molding processes.
FIG. 2 illustrates TGA test comparison results of hydrogenated ricinoleic acid as a chain-type fatty acid including a functional group according to the present invention, stearic acid as saturated fatty acid not including a branch group or a functional group, and fatty acid (FAD acid: mixture of palmitic acid, oleic acid, and stearic acid) included in a conventionally used fatty acid-based emulsifier.

Structure (SMILES) | Temperature at which loss of 5% by weight (w/w) occurs (TGA) [°C] | Temperature at which loss of 50% by weight (w/w) occurs (TGA) [°C] | Thermal stability (TGA comparison) | Loss amount at 270° C. (TGA, 270° C., Table 1) [% by weight] | Temperature at which loss of 10% by weight occurs (TGA, Table 1) [° ° C.]
CCCCCCC(O)CCCCCCCCCCC(=O)O (centres unmarked) [Hydrogenated ricinoleic acid, 12-hydroxy octadecanoic acid] | 263 | 455 | superior to stearic acid and fatty acid | – | –
CCCCCC[C@@H](O)C/C=C\CCCCCCCC(=O)O [Ricinoleic acid, ricinoleic acid] | – | – | superior to fatty acid | 9 | 273
CCCCCCCCCCCCCCCCCC(=O)O [Stearic acid, stearic acid, reference compound] | 237 | 289 | – | – | –
